Laboratory results as given in patent publication US7816522B2, “Triazolone derivatives” (Eisai Co., Ltd., priority 2006, dated 2010).
Where a name gives a salt, the structure may show the parent alone.

Biological target: T1, human clotting factor VIIa (Homo sapiens, UniProt P08709)
T1 construct: a human clotting factor VIIa (hereinafter, “Factor VIIa”) purified sample; purchased Enzyme Research Laboratories HFVIIa
Assay: Inhibitory activity against clotting factor VIIa (chromogenic substrate Spectrozyme FVIIa, TF/Factor VIIa enzyme solution)
Format: biochemical
Conditions: human Factor VIIa 5 nmol/L with human TF 10 nmol/L, room temperature 40 minutes, 405 nm
Method: [Inhibitory Activity Against Clotting Factor VIIa]
Dimethylsulfoxide (DMSO) solutions were prepared with compounds of the invention at concentration of 10 mmol/L (10 mmol/L compound solutions).
One packet of tris-hydroxymethylaminomethane-preset (hereinafter referred to as “Tris preset”) (Product of Sigma Corp., Catalog No. T8293), 8.8 g of sodium chloride (NaCl) and 1 g of bovine serum albumin (hereinafter abbreviated as “BSA”) were dissolved in 1 L of water to prepare a Tris-BSA buffer (100 mmol/L Tris, 0.15 mol/L NaCl, 0.1% BSA, pH 7.4).
This Tris-BSA buffer (180 μL) was added to the aforementioned 10 mmol/L compound solution (20 μL). A 10-fold dilution series was prepared for this mixture using the aforementioned Tris-BSA buffer, and solutions with the compound at concentrations of 1.0 mmol/L, 100, 10, 1, 0.1, 0.01 and 0.001 μmol/L were prepared (1.0 mmol-0.001 μmol/L compound solutions). As a control, a solution was prepared by 10-fold dilution of DMSO with the Tris-BSA buffer (hereinafter referred to as “control 10% solution”).
After dissolving one packet of Tris preset, NaCl (8.8 g) and BSA (1 g) in water (about 900 mL), there were added 1 mol/L aqueous calcium chloride (CaCl2) (15 mL) and 1 mg/mL aqueous cephalin (30 mL), and the total volume was brought to 1 L by adding water. To this solution there was added a human tissue factor (hereinafter, “TF”) sample (product of Calbiochem, Catalog No. 612151) (450 μg) to a TF sample concentration of 10 nmol/L, and then a human clotting factor VIIa (hereinafter, “Factor VIIa”) purified sample (product of Enzyme Research Laboratories, Catalog No. HFVIIa) (250 μg) was added to a Factor VIIa purified sample concentration of 5 nmol/L, to prepare an enzyme solution (100 mmol/L Tris-HCl, 0.15 mol/L NaCl, 15 mmol/L CaCl2, 30 μg/mL cephalin, 1 mg/mL BSA, 10 nmol/L TF, 5 nmol/L Factor VIIa).
To 110 μL of this enzyme solution there was added 15 μL of each of the 1.0 mmol-0.001 μmol/L compound solutions, and then 25 μL of a 1.0 mmol/L synthetic chromogenic substrate solution (Spectrozyme FVIIa, product of American Diagnostica, Catalog No. 217L) was added and the mixture was allowed to stand at room temperature for 40 minutes. Next, the amount of 4-nitroanilide released into the solution was quantitated by spectrophotometry (405 nm).
A control measurement was conducted in the same manner, using the control 10% solution instead of the compound solution.
This measurement yielded the enzyme reaction inhibition in the presence of 100 μmol/L to 0.1 nmol/L of each compound of the invention.
The enzyme reaction inhibition at each compound concentration was subjected to non-linear regression analysis, and the IC50 value for inhibitory activity of each compound against clotting factor VIIa was calculated.

T1 sequence (P08709 213-466 limits assumed): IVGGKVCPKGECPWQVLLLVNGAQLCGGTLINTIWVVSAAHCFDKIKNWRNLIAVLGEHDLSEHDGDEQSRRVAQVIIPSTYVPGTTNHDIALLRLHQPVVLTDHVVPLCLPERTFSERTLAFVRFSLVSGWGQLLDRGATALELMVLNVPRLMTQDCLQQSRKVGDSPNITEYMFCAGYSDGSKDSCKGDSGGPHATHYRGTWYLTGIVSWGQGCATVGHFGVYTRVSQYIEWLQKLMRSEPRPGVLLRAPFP
T1 sequence (P08709 61-212 limits assumed): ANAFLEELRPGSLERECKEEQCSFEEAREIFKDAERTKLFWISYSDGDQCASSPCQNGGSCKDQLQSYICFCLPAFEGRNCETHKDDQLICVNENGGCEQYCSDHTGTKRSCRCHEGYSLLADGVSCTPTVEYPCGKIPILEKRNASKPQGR
T1 sequence (P13726 33-295 partner): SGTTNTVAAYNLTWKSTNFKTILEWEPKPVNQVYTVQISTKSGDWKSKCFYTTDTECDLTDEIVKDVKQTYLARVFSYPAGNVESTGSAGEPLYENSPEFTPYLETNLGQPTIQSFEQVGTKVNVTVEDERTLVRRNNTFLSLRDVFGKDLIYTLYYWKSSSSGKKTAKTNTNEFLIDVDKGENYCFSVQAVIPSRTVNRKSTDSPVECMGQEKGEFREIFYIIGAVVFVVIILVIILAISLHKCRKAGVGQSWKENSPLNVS

Structure (SMILES)	IC50 [nM]
COc1cc(F)c(C(Nc2ccc(C(=N)N)cc2)c2nn(-c3ccccc3C(=O)O)c(=O)[nH]2)cc1OC (racemic) [Example 1, (R) and (S)-2-{3-[(4-carbamimidoylphenylamino)-(2-fluoro-4,5-dimethoxyphenyl)methyl]-5-oxo-4,5-dihydro-[1,2,4]triazol-1-yl}benzoic acid acetate]	7.5
COc1cc(OCCF)c(F)c(C(Nc2ccc(C(=N)N)cc2)c2nn(-c3ncccn3)c(=O)[nH]2)c1 (racemic) [Example 3, (R) and (S)-4-({[2-fluoro-3-(2-fluoroethoxy)-5-methoxyphenyl]-(5-oxo-1-pyrimidin-2-yl-4,5-dihydro-1H-[1,2,4]triazol-3-yl)methyl}amino)benzamidine acetate]	4.8
COc1cc(O[C@H]2CCOC2)cc(C(Nc2ccc(C(=N)N)cc2)c2nn(-c3ncccn3)c(=O)[nH]2)c1 (mixture of isomers) [Example 4, 4-{[(R) and (S)-{3-methoxy-5-[(S)-(tetrahydrofuran-3-yl)oxy]phenyl}-(5-oxo-1-pyrimidin-2-yl-4,5-dihydro-1H-[1,2,4]triazol-3-yl)methyl]amino}benzamidine acetate]	3
COc1cc(O[C@@H]2CCOC2)cc(C(Nc2ccc(C(=N)N)cc2)c2nn(-c3ncccn3)c(=O)[nH]2)c1 (mixture of isomers) [Example 5, 4-[((R) and (S)-{3-methoxy-5-[(R)-(tetrahydrofuran-3-yl)oxy]phenyl}-(5-oxo-1-pyrimidin-2-yl-4,5-dihydro-1H-[1,2,4]triazol-3-yl)methyl)amino]benzamidine acetate]	4.9
COCCOc1cc(OC)cc(C(Nc2ccc(C(=N)N)cc2)c2nn(-c3ncccn3)c(=O)[nH]2)c1 (racemic) [Example 6, (R) and (S)-4-({[3-methoxy-5-(2-methoxyethoxy)phenyl]-(5-oxo-1-pyrimidin-2-yl-4,5-dihydro-1H-[1,2,4]triazol-3-yl)methyl}amino)benzamidine acetate]	10.3
COCCOc1cc(OC)cc(C(Nc2ccc(C(=N)N)cc2)c2nn(-c3cccnn3)c(=O)[nH]2)c1 (racemic) [Example 7, (R) and (S)-4-({[3-methoxy-5-(2-methoxyethoxy)phenyl]-(5-oxo-1-pyridazin-3-yl-4,5-dihydro-1H-[1,2,4]triazol-3-yl)methyl}amino)benzamidine acetate]	9.9
COc1cc(OCCN(C)C)cc(C(Nc2ccc(C(=N)N)cc2)c2nn(-c3ncccn3)c(=O)[nH]2)c1 (racemic) [Example 8, (R) and (S)-4-({[3-(2-dimethylaminoethoxy)-5-methoxyphenyl]-(5-oxo-1-pyrimidin-2-yl-4,5-dihydro-1H-[1,2,4]triazol-3-yl)methyl}amino)benzamidine diacetate]	22.6
COc1cc(OC)cc(C(Nc2ccc(C(=N)N)cc2)c2nn(-c3ncccn3)c(=O)[nH]2)c1 (racemic) [Example 9, (R) and (S)-4-{[(3,5-dimethoxyphenyl)-(5-oxo-1-pyrimidin-2-yl-4,5-dihydro-1H-[1,2,4]triazol-3-yl)methyl]amino}benzamidine acetate]	9.8
COCc1cc(OC)cc(C(Nc2ccc(C(=N)N)cc2)c2nn(-c3ncccn3)c(=O)[nH]2)c1 (racemic) [Example 10, (R) and (S)-4-{[(3-methoxy-5-methoxymethylphenyl)-(5-oxo-1-pyrimidin-2-yl-4,5-dihydro-1H-[1,2,4]triazol-3-yl)methyl]amino}benzamidine acetate]	21.1
COc1cc(CO)cc(C(Nc2ccc(C(=N)N)cc2)c2nn(-c3ncccn3)c(=O)[nH]2)c1 (racemic) [Example 12, (R) and (S)-4-{[(3-hydroxymethyl-5-methoxyphenyl)-(5-oxo-1-pyrimidin-2-yl-4,5-dihydro-1H-[1,2,4]triazol-3-yl)methyl]amino}benzamidine trifluoroacetate]	33.8
COc1cc(OCC(=O)N(C)C)c(F)c(C(Nc2ccc(C(=N)N)cc2)c2nn(-c3ncccn3)c(=O)[nH]2)c1 (racemic) [Example 15, (R) and (S)-2-{3-[(4-carbamimidoylphenylamino)-(5-oxo-1-pyrimidin-2-yl-4,5-dihydro-1H-[1,2,4]triazol-3-yl)methyl]-2-fluoro-5-methoxyphenoxy}-N,N-dimethylacetamide acetate]	13.4
COc1cc(C(Nc2ccc(C(=N)N)cc2)c2nn(-c3ncccn3)c(=O)[nH]2)ccc1OCC#N (racemic) [Example 16, (R) and (S)-4-{[(4-cyanomethoxy-3-methoxyphenyl)-(5-oxo-1-pyrimidin-2-yl-4,5-dihydro-1H-[1,2,4]triazol-3-yl)methyl]amino}benzamidine acetate]	11.5
CCOc1cc(C(Nc2ccc(C(=N)N)cc2)c2nn(-c3ncccn3)c(=O)[nH]2)ccc1OC (racemic) [Example 17, (R) and (S)-4-{[(3-ethoxy-4-methoxyphenyl)-(5-oxo-1-pyrimidin-2-yl-4,5-dihydro-1H-[1,2,4]triazol-3-yl)methyl]amino}benzamidine acetate]	7.5
CCOc1ccc(C(Nc2ccc(C(=N)N)cc2)c2nn(-c3ncccn3)c(=O)[nH]2)cc1OC (racemic) [Example 18, (R) and (S)-4-{[(4-ethoxy-3-methoxyphenyl)-(5-oxo-1-pyrimidin-2-yl-4,5-dihydro-1H-[1,2,4]triazol-3-yl)methyl]amino}benzamidine acetate]	15.5
COc1cc(C(Nc2ccc(C(=N)N)cc2)c2nn(-c3ncccc3N)c(=O)[nH]2)cc(C)n1 (racemic) [Example 19, (R) and (S)-4-({[1-(3-aminopyridin-2-yl)-5-oxo-4,5-dihydro-1H-[1,2,4]triazol-3-yl]-(2-methoxy-6-methylpyridin-4-yl)methyl}amino)benzamidine acetate]	12.8
COc1cc(C(Nc2ccc(C(=N)N)cc2)c2nn(-c3ncccn3)c(=O)[nH]2)cc2c1OCCO2 (racemic) [Example 20, (R) and (S)-4-{[(8-methoxy-2,3-dihydro-benzo[1,4]dioxin-6-yl)-(5-oxo-1-pyrimidin-2-yl-4,5-dihydro-1H-[1,2,4]triazol-3-yl)methyl]amino}benzamidine acetate]	9.7
COc1cc(C(Nc2ccc(C(=N)N)cc2)c2nn(-c3ncccn3)c(=O)[nH]2)cc2c1OCOC2 (racemic) [Example 21, (R) and (S)-4-{[(8-methoxy-4H-benzo[1,3]dioxin-6-yl)-(5-oxo-1-pyrimidin-2-yl-4,5-dihydro-1H-[1,2,4]triazol-3-yl)methyl]amino}benzamidine acetate]	10.6
COCc1cc(C(Nc2ccc(C(=N)N)cc2)c2nn(-c3ncccn3)c(=O)[nH]2)cc(OC)c1OC (racemic) [Example 22, (R) and (S)-4-{[(3,4-dimethoxy-5-methoxymethyl-phenyl)-(5-oxo-1-pyrimidin-2-yl-4,5-dihydro-1H-[1,2,4]triazol-3-yl)methyl]amino}benzamidine acetate]	8.3
COc1cc(C(Nc2ccc(C(=N)N)cc2)c2nn(-c3ncccn3)c(=O)[nH]2)cc2c1OCCC2 (racemic) [Example 24, (R) and (S)-4-{[(8-methoxychroman-6-yl)-(5-oxo-1-pyrimidin-2-yl-4,5-dihydro-1H-[1,2,4]triazol-3-yl)methyl]amino}benzamidine acetate]	7.4
COc1cc(C(Nc2ccc(C(=N)N)cc2)c2nn(-c3ncccn3)c(=O)[nH]2)cc(CC#N)c1OC (racemic) [Example 26, (R) and (S)-4-{[(3-cyanomethyl-4,5-dimethoxyphenyl)-(5-oxo-1-pyrimidin-2-yl-4,5-dihydro-1H-[1,2,4]triazol-3-yl)methyl]amino}benzamidine acetate]	5.4
CCc1cc(C(Nc2ccc(C(=N)N)cc2)c2nn(-c3ncccn3)c(=O)[nH]2)cc2c1OCOC2 (racemic) [Example 27, (R) and (S)-4-{[(8-ethyl-4H-benzo[1,3]dioxin-6-yl)-(5-oxo-1-pyrimidin-2-yl-4,5-dihydro-1H-[1,2,4]triazol-3-yl)methyl]amino}benzamidine acetate]	3.1
